# Test results reported in patent US20260083851A1 (AVILAR THERAPEUTICS, INC., priority 2022, published 2026).
# Read-outs that look alike come from different tables or passages of the source.
# Columns and labels:
# ASGPR = target: T1, ASGPR (Homo sapiens, UniProt P07306); assay: ASGPR SPR binding
# T1 construct: biotin (biotinylated)
# T1 sequence (P07306 1-291): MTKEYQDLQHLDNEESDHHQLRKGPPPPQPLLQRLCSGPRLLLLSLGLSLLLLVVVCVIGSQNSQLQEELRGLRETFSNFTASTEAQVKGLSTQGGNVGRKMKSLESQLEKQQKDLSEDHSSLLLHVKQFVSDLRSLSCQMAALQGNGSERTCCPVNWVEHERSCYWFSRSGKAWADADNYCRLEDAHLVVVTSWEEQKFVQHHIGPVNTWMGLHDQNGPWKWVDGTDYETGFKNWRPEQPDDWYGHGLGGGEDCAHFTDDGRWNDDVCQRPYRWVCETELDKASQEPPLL
# [1] = target: T2, ASGPR receptor on HepG2 cells (ternary complex with AF488-labeled antibody) (Homo sapiens, UniProt P07306); assay: Ternary complex formation assay (flow cytometry, cell-associated AF488 fluorescence); type: cell-based; conditions: 100 nM AF488-labeled antibody, 1 hour at 4° C.
# T2 construct: host or cells: HepG2
# T2 sequence (P07306 1-291): T1 sequence (P07306 1-291)
# T2 sequence (P07307 1-311 partner): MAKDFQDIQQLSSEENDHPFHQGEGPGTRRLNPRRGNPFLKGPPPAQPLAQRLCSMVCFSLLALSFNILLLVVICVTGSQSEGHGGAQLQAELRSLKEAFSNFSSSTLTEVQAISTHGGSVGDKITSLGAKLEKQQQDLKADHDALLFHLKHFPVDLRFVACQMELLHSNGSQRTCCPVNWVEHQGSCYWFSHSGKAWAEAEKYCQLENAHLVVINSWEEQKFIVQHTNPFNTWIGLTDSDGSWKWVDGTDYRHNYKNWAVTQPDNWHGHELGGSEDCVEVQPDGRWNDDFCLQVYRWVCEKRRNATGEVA
# IgG = IgG SPR binding
# HepG2 cells = assay: Cellular uptake assay (high-content imaging); type: cell-based, human; conditions: 100 nM AF488-labeled antibody, 6 hours at 37° C.
# From the text: The cellular uptake assay is designed to measure compound-mediated cellular uptake of fluorescently labeled antibody following ternary complex formation with the ASGPR receptor and endocytosis of the entire complex into cells. The optimal concentration of compound will result in the maximum number of cells with intracellular antibody and is represented as the peak ratio of antibody-positive cells over the total number of cells. As with the ternary complex formation assay, too much or too little compound will result in suboptimal complex formation and fewer cells will have measurable intracellular fluorescence.
# Human IgG (Sigma-Aldrich, 14506) was covalently labeled with Alexa Fluor 488 using the Alexa Fluor™ 488 Protein Labeling Kit (Thermo Fisher, A10235) following the manufacturer's instructions. HepG2 cells were plated in DMEM supplemented with 10% FBS at 5,000 cells per well in a 96-well microtiter plate and incubated for approximately 18 hours at 37° C./5% CO2. For studies using human IgG, 100 nM AF488-labeled human IgG antibodies and serial dilutions of IgG-based degrader (0.1% DMSO final concentration) were added to the cells and the mixture was incubated at 37° C. for 6 hours. For studies using DNP, 100 nM AF488-labeled DNP antibodies and serial dilutions of DNP-based degrader (0.1% DMSO final concentration) were added to the cells and the mixture was incubated at 37° C. for 6 hours. HepG2 cells were fixed in 100% methanol at −20° C. for 20 min, washed 3× with PBS, then stained with DAPI (Thermo, Cat #H3570). HepG2 cells were imaged for DAPI and Alexa Fluor 488 using the Operetta CLS, high-content analysis system (PerkinElmer). Data is presented as the ratio of the number of cells positive for hIgG or DNP (AF-488 fluorescence) over the total cell number (measured by DAPI).
# [2] = Table 3, read-out: ASGPR SPR Binding KD
# [3] = Table 3, class symbols, read-out: Ternary Complex EC50
# [4] = Table 3, read-out: IgG SPR Binding KD
# [5] = Homo sapiens, Table 3, class symbols, read-out: Uptake Assay (EC50)
# [6] = second table, read-out: ASGPR KD
# [7] = the 25th table, class symbols, read-out: TCF EC50
Compound,Kd (ASGPR; [2]) [nM],"EC50 [1, 3] [nM]",Kd (IgG; [4]) [nM],EC50 (HepG2 cells; [5]) [nM],"EC50 (HepG2 cells; Homo sapiens, Table 3, numeric bounds, read-out: Uptake Assay (EC50)) [nM]","EC50 (HepG2 cells; Homo sapiens, the 25th table, class symbols, read-out: Uptake EC50) [nM]","EC50 ([1]; Table 3, numeric bounds, read-out: Ternary Complex EC50) [nM]",Kd (ASGPR; [6]) [nM],"EC50 [1, 7] [nM]","Kd (IgG; second table, read-out: IgG KD) [nM]","EC50 (HepG2 cells; the 25th table, class symbols, read-out: Uptake EC50) [nM]"
CC(C)C[C@@H]1NC(=O)[C@H](Cc2cnc[nH]2)NC(=O)[C@H](Cc2c[nH]c3ccccc23)NC(=O)[C@H](C)NC(=O)[C@@H]2CSSC[C@H](NC(=O)[C@H](Cc3c[nH]c4ccccc34)NC(=O)[C@H](C(C)C)NC(=O)[C@H](CC(C)C)NC(=O)[C@H](CCC(=O)O)NC(=O)CNC1=O)C(=O)N[C@@H]([C@@H](C)O)C(=O)N1CCC[C@@H]1C(=O)N1C[C@@H](NC(=O)COCCOCC(=O)NC[C@H]3OC[C@H](Nc4nc(C(F)(F)F)ccc4F)[C@@H](O)[C@H]3O)C[C@H]1C(=O)N[C@@H](CC(=O)O)C(=O)N2 [compound 33],100 to 500,< 100,< 100,< 100,,,,,,,
CC(=O)N[C@H]1[C@H](OCCCCOCCOCCOCCNC(=O)CCOCC(COCCC(=O)NCCOCCOCCOCCO[C@@H]2O[C@H](CO)[C@H](O)[C@H](O)[C@H]2NC(C)=O)NC(=O)CCCCCn2cc(CCCC(=O)NCCOCCOCCOCCOCCC(=O)N[C@H]3C[C@H]4C(=O)N[C@@H](CC(=O)O)C(=O)N[C@H]5CSSC[C@H](NC(=O)[C@H](Cc6c[nH]c7ccccc67)NC(=O)[C@H](C(C)C)NC(=O)[C@H](CC(C)C)NC(=O)[C@H](CCC(=O)O)NC(=O)CNC(=O)[C@H](CC(C)C)NC(=O)[C@H](Cc6cnc[nH]6)NC(=O)[C@H](Cc6c[nH]c7ccccc67)NC(=O)[C@H](C)NC5=O)C(=O)N[C@@H]([C@@H](C)O)C(=O)N5CCC[C@@H]5C(=O)N4C3)nn2)O[C@H](CO)[C@H](O)[C@@H]1O (stereo partly shown) [compound 86],,,,,,,,> 1000,> 1000,< 100,> 1000
CC(C)C[C@@H]1NC(=O)[C@H](Cc2cnc[nH]2)NC(=O)[C@H](Cc2c[nH]c3ccccc23)NC(=O)[C@H](C)NC(=O)[C@@H]2CSSC[C@H](NC(=O)[C@H](Cc3c[nH]c4ccccc34)NC(=O)[C@H](C(C)C)NC(=O)[C@H](CC(C)C)NC(=O)[C@H](CCC(=O)O)NC(=O)CNC1=O)C(=O)N[C@@H]([C@@H](C)O)C(=O)N1CCC[C@@H]1C(=O)N1C[C@H](NC(=O)CNC(COCCC(=O)NCCOCCOCCOCCOC[C@H]3OC[C@H](Nc4cncc(C(F)(F)F)n4)[C@@H](O)[C@H]3O)COCCC(=O)NCCOCCOCCOCCOC[C@H]3OC[C@H](Nc4cncc(C(F)(F)F)n4)[C@@H](O)[C@H]3O)C[C@H]1C(=O)N[C@@H](CC(=O)O)C(=O)N2 [compound 97],,,,,,< 100,,< 100,< 100,< 100,
CC(C)C[C@@H]1NC(=O)[C@H](Cc2cnc[nH]2)NC(=O)[C@H](Cc2c[nH]c3ccccc23)NC(=O)[C@H](C)NC(=O)[C@@H]2CSSC[C@H](NC(=O)[C@H](Cc3c[nH]c4ccccc34)NC(=O)[C@H](C(C)C)NC(=O)[C@H](CC(C)C)NC(=O)[C@H](CCC(=O)O)NC(=O)CNC1=O)C(=O)N[C@@H]([C@@H](C)O)C(=O)N1CCC[C@@H]1C(=O)N1C[C@@H](NC(=O)COCCOCC(=O)NC[C@H]3OC[C@H](Nc4nccc(C(F)(F)F)n4)[C@@H](O)[C@H]3O)C[C@H]1C(=O)N[C@@H](CC(=O)O)C(=O)N2 [compound 34],> 1000,,< 100,> 1000,,,> 964,,,,

# Second part, led by results:
Kd (ASGPR; [2]) [nM],"EC50 [1, 3] [nM]",Kd (IgG; [4]) [nM],EC50 (HepG2 cells; [5]) [nM],"EC50 (HepG2 cells; Homo sapiens, Table 3, numeric bounds, read-out: Uptake Assay (EC50)) [nM]","EC50 (HepG2 cells; Homo sapiens, the 25th table, class symbols, read-out: Uptake EC50) [nM]","EC50 ([1]; Table 3, numeric bounds, read-out: Ternary Complex EC50) [nM]",Compound,Kd (ASGPR; [6]) [nM],"EC50 [1, 7] [nM]","Kd (IgG; second table, read-out: IgG KD) [nM]","EC50 (HepG2 cells; the 25th table, class symbols, read-out: Uptake EC50) [nM]"
< 100,< 100,< 100,100 to 500,,,,CC(C)C[C@@H]1NC(=O)[C@H](Cc2cnc[nH]2)NC(=O)[C@H](Cc2c[nH]c3ccccc23)NC(=O)[C@H](C)NC(=O)[C@@H]2CSSC[C@H](NC(=O)[C@H](Cc3c[nH]c4ccccc34)NC(=O)[C@H](C(C)C)NC(=O)[C@H](CC(C)C)NC(=O)[C@H](CCC(=O)O)NC(=O)CNC1=O)C(=O)N[C@@H]([C@@H](C)O)C(=O)N1CCC[C@@H]1C(=O)N1C[C@H](NC(=O)c3ccc(N4CCC(CN5CCN(C[C@H]6OC[C@H](Nc7cccc(C(F)(F)F)n7)[C@@H](O)[C@H]6O)CC5)CC4)cc3)C[C@H]1C(=O)N[C@@H](CC(=O)O)C(=O)N2 [compound 29],,,,
< 100,< 100,< 100,,> 1100,,,CC(C)C[C@@H]1NC(=O)[C@H](Cc2cnc[nH]2)NC(=O)[C@H](Cc2c[nH]c3ccccc23)NC(=O)[C@H](C)NC(=O)[C@@H]2CSSC[C@H](NC(=O)[C@H](Cc3c[nH]c4ccccc34)NC(=O)[C@H](C(C)C)NC(=O)[C@H](CC(C)C)NC(=O)[C@H](CCC(=O)O)NC(=O)CNC1=O)C(=O)N[C@@H]([C@@H](C)O)C(=O)N1CCC[C@@H]1C(=O)N1C[C@H](NC(=O)COCCOCC(=O)NC[C@H]3OC[C@H](Nc4cccc(C(F)(F)F)n4)[C@@H](O)[C@H]3O)C[C@H]1C(=O)N[C@@H](CC(=O)O)C(=O)N2 [compound 28],,,,
< 100,100 to 500,< 100,100 to 500,,,,CC(C)C[C@@H]1NC(=O)[C@H](Cc2cnc[nH]2)NC(=O)[C@H](Cc2c[nH]c3ccccc23)NC(=O)[C@H](C)NC(=O)[C@@H]2CSSC[C@H](NC(=O)[C@H](Cc3c[nH]c4ccccc34)NC(=O)[C@H](C(C)C)NC(=O)[C@H](CC(C)C)NC(=O)[C@H](CCC(=O)O)NC(=O)CNC1=O)C(=O)N[C@@H]([C@@H](C)O)C(=O)N1CCC[C@@H]1C(=O)N1C[C@H](NC(=O)c3ccc(N4CCC(CN5CCN(C[C@H]6OC[C@H](Nc7nc(C(F)(F)F)ccc7F)[C@@H](O)[C@H]6O)CC5)CC4)cc3)C[C@H]1C(=O)N[C@@H](CC(=O)O)C(=O)N2 [compound 30],,,,
< 100,< 100,< 100,< 100,,,,CC(C)C[C@@H]1NC(=O)[C@H](Cc2cnc[nH]2)NC(=O)[C@H](Cc2c[nH]c3ccccc23)NC(=O)[C@H](C)NC(=O)[C@@H]2CSSC[C@H](NC(=O)[C@H](Cc3c[nH]c4ccccc34)NC(=O)[C@H](C(C)C)NC(=O)[C@H](CC(C)C)NC(=O)[C@H](CCC(=O)O)NC(=O)CNC1=O)C(=O)N[C@@H]([C@@H](C)O)C(=O)N1CCC[C@@H]1C(=O)N1C[C@@H](NC(=O)c3ccc(N4CCC(CN5CCN(C[C@H]6OC[C@H](Nc7cccc(C(F)(F)F)n7)[C@@H](O)[C@H]6O)CC5)CC4)cc3)C[C@H]1C(=O)N[C@@H](CC(=O)O)C(=O)N2 [compound 26],,,,
< 100,< 100,< 100,< 100,,,,CC(C)C[C@@H]1NC(=O)[C@H](Cc2cnc[nH]2)NC(=O)[C@H](Cc2c[nH]c3ccccc23)NC(=O)[C@H](C)NC(=O)[C@@H]2CSSC[C@H](NC(=O)[C@H](Cc3c[nH]c4ccccc34)NC(=O)[C@H](C(C)C)NC(=O)[C@H](CC(C)C)NC(=O)[C@H](CCC(=O)O)NC(=O)CNC1=O)C(=O)N[C@@H]([C@@H](C)O)C(=O)N1CCC[C@@H]1C(=O)N1C[C@H](NC(=O)c3ccc(N4CCC(CN5CCN(C[C@H]6OC[C@H](Nc7ccnc(C(F)(F)F)n7)[C@@H](O)[C@H]6O)CC5)CC4)cc3)C[C@H]1C(=O)N[C@@H](CC(=O)O)C(=O)N2 [compound 32],,,,
< 100,< 100,< 100,< 100,,,,CC(C)C[C@@H]1NC(=O)[C@H](Cc2cnc[nH]2)NC(=O)[C@H](Cc2c[nH]c3ccccc23)NC(=O)[C@H](C)NC(=O)[C@@H]2CSSC[C@H](NC(=O)[C@H](Cc3c[nH]c4ccccc34)NC(=O)[C@H](C(C)C)NC(=O)[C@H](CC(C)C)NC(=O)[C@H](CCC(=O)O)NC(=O)CNC1=O)C(=O)N[C@@H]([C@@H](C)O)C(=O)N1CCC[C@@H]1C(=O)N1C[C@@H](NC(=O)c3ccc(N4CCC(CN5CCN(C[C@H]6OC[C@H](Nc7ccnc(C(F)(F)F)n7)[C@@H](O)[C@H]6O)CC5)CC4)cc3)C[C@H]1C(=O)N[C@@H](CC(=O)O)C(=O)N2 [compound 31],,,,
